One experiment deals with BRD4-1 (Homo sapiens (Human), UniProt O60885). Put plainly: Bromodomain and Extraterminal Domain (BET) Binding Assay. The conditions noted are these: Table 3; read-out: BRD4-1 IC50. On the procedure: (§1) The bromodomain binding assays were performed by Reaction Biology Corp., Malvern, Pa., USA (www.reactionbiology.com). The BET binding assays were conducted in 384 well microplates in assay buffer (50 mM HEPES-HCl, pH 7.5, 100 mM NaCl, 1 mg/ml BSA, 0.05% CHAPS, and 0.5% DMSO) with compounds added as DMSO stocks at a single concentration or with 10-point dose response titrations. BET protein or assay buffer were delivered to the appropriate wells of the microplate. Test compound was then delivered by acoustic technology via a Labcyte Echo550 liquid handler. The microplate was centrifuged for 5 min and pre-incubated for 30 min at RT with gentle shaking. The ligand (histone H4 peptide (1-21) K5/8/12/16Ac-biotin) was delivered and the microplate was again centrifuged for 5 min and allowed to incubate for 30 min at RT with gentle shaking. Donor beads were then added in the absence of light and the microplate was centrifuged and gently shaken. After 5 min, acceptor beads were added in the absence of light and the microplate was centrifuged and gently shakenin the dark for 60 min. The microplate was read using a Perkin Elmer EnSpire Alpha plate reader (λEx/λEm=680/520-620 nm). Percent inhibition was calculated relative to positive and negative controls on a per plate basis. For titration experiments, IC50 values were determined by fitting the percent inhibition versus compound concentration.

A further experiment deals with BRD4-2 (Homo sapiens (Human), UniProt O60885). The experiment is described as above. The note with it: Table 3; read-out: BRD4-2 IC50. On the procedure:
as §1

In another experiment the test system is c-Myc. Put plainly: Measurement of c-Myc suppression after washoff (Western blot). Format: cell-based, human. The conditions noted are these: MV4-11, 2 μM for 2 hr, washed, further 6 hr. The method, then:
MV4-11 cells were incubated with 2 μM of JQ1, mivebresib or a test compound for 2 hr. The cells were then washed twice with fresh culture medium and further cultured for another 6 hr. Cells were extracted with SDS sample buffers and then subjected to Western blot analysis to measure c-Myc. Compounds 2, 3, 12, 17, 409, 411 and 412 were tested in these assays.
A general note: A western blot detects proteins with antibodies after separation by electrophoresis.

For experiment [1], the system named is MV-4-11 human acute myeloid leukemia cell line. Put plainly: Second cell viability assay in MV-4-11 (Cell Titer-Glo). The experiment is classed as cell-based. The conditions noted are these: Homo sapiens; MV4-11, Cell Titer-Glo, 72 hrs; read-out: Cell Viability IC50 in MV4-11 cells. The method, then: The effects of test compounds were studied in a second cell viability assay in the MV-4-11 human acute myeloid leukemia cell line. The cells were harvested during the logarithmic growth period and counted. Cells were seeded at a count of 15000 cells per well/100 μl. After seeding, cells were incubated at 37° C., 5% CO2 for 1 hr. Cells were treated with test compounds at 8 concentrations within a desired concentration range (e.g. 5 nM-[…]) for generation of dose response curves by preparing serial dilutions of the test compound in DMSO which were further diluted with culture medium and then added to each well. The plate was further incubated for another 72 hrs in a humidified incubator at 37° C. and 5% CO2. The assay was terminated by addition of Cell Titer-Glo reagent (Promega, Madison, Wis.) at ¼ the volume of total medium per well. Contents were mixed, the plate was incubated for 10 min at room temperature and luminescence was measured. Cell viability data were plotted using GraphPad Prism (GraphPad Software, Inc., San Diego, Calif.). In addition, a nonlinear regression model with a sigmoidal dose response and variable slope within GraphPad Prism was used to calculate the IC50 value of individual test compounds.
In general terms: ATP-based viability assays read luminescence as a measure of living cells.

Structures are written as SMILES. pIC50: −log10 of the molar value.

Broadly, the pIC50 is the negative decadic logarithm of the IC50, by convention in mol/L. In the case of `C=CC(=O)Nc1ccc(Oc2ccc(F)cc2F)c(-c2cc(NC)c(=O)n(C)c2)c1` [Compound 1, N-(4-(2,4-difluorophenoxy)-3-(1-methyl-5-(methylamino)-6-oxo-1,6-dihydropyridin-3-yl)phenyl)acrylamide], the values for the pIC50 on BRD4-1 and at BRD4-2 were 6.73 and 7.19, respectively. With `C=CS(=O)(=O)Nc1ccc(Oc2ccc(OC)cc2)c(-c2cn(C)c(=O)c3ccccc23)c1` [Compound 12, N-(4-(4-methoxyphenoxy)-3-(2-methyl-1-oxo-1,2-dihydroisoquinolin-4-yl)phenyl)ethenesulfonamide], in the experiment on c-Myc, the “c-Myc suppression activity after washoff” value is given as “less durable or no suppression activity”. The negative logarithm of the IC50 (pIC50) at BRD4-2 was 7.43. For `C=CS(=O)(=O)Nc1ccc(Oc2ccc(F)cc2F)c(-c2cc(N(C)C)c(=O)n(C)c2)c1` [Compound 16, N-(4-(2,4-difluorophenoxy)-3-(5-(dimethylamino)-1-methyl-6-oxo-1,6-dihydropyridin-3-yl)phenyl)ethenesulfonamide], the results for the negative logarithm of the IC50 (pIC50) on BRD4-1 and at BRD4-2 were 8.22 and 7.59, respectively. In the same order, the values of `C=CC(=O)Nc1ccc(Oc2ccc(F)cc2F)c(-c2cc(N(C)C)c(=O)n(C)c2)c1` [Compound 29, N-(4-(2,4-difluorophenoxy)-3-(5-(dimethylamino)-1-methyl-6-oxo-1,6-dihydropyridin-3-yl)phenyl)acrylamide] are 7.52 and 7.82. In the same order, the values of `C=CC(=O)Nc1ccc(Oc2ccc(F)cc2)c(-c2cc(NC)c(=O)n(C)c2)c1` [Compound 30, N-(4-(4-fluorophenoxy)-3-(1-methyl-5-(methylamino)-6-oxo-1,6-dihydropyridin-3-yl)phenyl)acrylamide] are 6.98 and 7.24. As to `C/C=C/S(=O)(=O)Nc1ccc(Oc2ccc(F)cc2F)c(-c2cn(C)c(=O)c3ccccc23)c1` [Compound 86, (E)-N-(4-(2,4-difluorophenoxy)-3-(2-methyl-1-oxo-1,2-dihydroisoquinolin-4-yl)phenyl)prop-1-ene-1-sulfonamide], the results for the pIC50 (in experiment [1]; at BRD4-2) were 6.56 and 7.10, respectively. In the case of `C=CC(=O)Nc1ccc(Oc2c(C)cc(F)cc2C)c(-c2cc(NC)c(=O)n(C)c2)c1` [Compound 167, N-(4-(4-fluoro-2,6-dimethylphenoxy)-3-(1-methyl-5-(methylamino)-6-oxo-1,6-dihydropyridin-3-yl)phenyl)acrylamide], the pIC50 is 7.01 in experiment [1], 6.37 on BRD4-1 and 7.77 on BRD4-2. For `C=CC(=O)Nc1ccc(Nc2ccc(F)cc2F)c(-c2cn(C)c(=O)c3ccccc23)c1` [Compound 305, N-(4-(2,4-difluorophenylamino)-3-(2-methyl-1-oxo-1,2-dihydroisoquinolin-4-yl)phenyl)acrylamide], the values for the negative-log IC50 (pIC50) on BRD4-1 and on BRD4-2 were 5.77 and 5.66, respectively. In the same order, the values of `C=CC(=O)Nc1ccc(Nc2c(C)cccc2C)c(-c2cn(C)c(=O)c3ccccc23)c1` [Compound 313, N-(4-(2,6-dimethylphenylamino)-3-(2-methyl-1-oxo-1,2-dihydroisoquinolin-4-yl)phenyl)acrylamide] are below 5.00 and 6.05.

With `C=CC(=O)Nc1ccc(Oc2c(C)cccc2C)c(-c2cn(C)c(=O)c3sc(C(=O)NCC)cc23)c1` [Compound 381, 4-(5-acrylamido-2-(2,6-dimethylphenoxy)phenyl)-N-ethyl-6-methyl-7-oxo-6,7-dihydrothieno[2,3-c]pyridine-2-carboxamide], the figures for the pIC50 (in experiment [1]; at BRD4-1; at BRD4-2) were 6.76, 4.90 and 7.89, respectively.

For the compound `C=CC(=O)Nc1ccc(Oc2c(C)cccc2C)c(-c2cn(C)c(=O)c3ccccc23)c1` [Compound 397, N-(4-(2,6-dimethylphenoxy)-3-(2-methyl-1-oxo-1,2-dihydroisoquinolin-4-yl)phenyl)acrylamide], the results for the negative logarithm of the IC50 (pIC50) on BRD4-1 and on BRD4-2 were 5.01 and 6.26, respectively. Turning to `C=CC(=O)Nc1ccc(Oc2ccc(F)cc2F)c(-c2cn(C)c(=O)c3c2OCC(=O)N3)c1` [Compound 404, N-(4-(2,4-difluorophenoxy)-3-(6-methyl-3,5-dioxo-3,4,5,6-tetrahydro-2H-pyrido[4,3-b][1,4]oxazin-8-yl)phenyl)acrylamide], the pIC50 on BRD4-2 was 5.74. For the compound `C=CC(=O)Nc1ccc(Oc2c(C)cc(F)cc2C)c(-c2cn(C)c(=O)c3ccccc23)c1` [Compound 408, N-(4-(4-fluoro-2,6-dimethylphenoxy)-3-(2-methyl-1-oxo-1,2-dihydroisoquinolin-4-yl)phenyl)acrylamide], the pIC50 was 4.80 on BRD4-1 and 6.36 at BRD4-2. Turning to `Cc1cccc(C)c1Oc1ccc(NC(=O)/C=C/CN(C)C)cc1-c1cn(C)c(=O)c2ccccc12` [Compound 410, (E)-4-(dimethylamino)-N-(4-(2,6-dimethylphenoxy)-3-(2-methyl-1-oxo-1,2-dihydroisoquinolin-4-yl)phenyl)but-2-enamide], on BRD4-2, the pIC50 is 6.12. Take `C=CC(=O)Nc1ccc(Oc2c(F)cccc2F)c(-c2cn(C)c(=O)c3ccccc23)c1` [Compound 583, N-(4-(2,6-difluorophenoxy)-3-(2-methyl-1-oxo-1,2-dihydroisoquinolin-4-yl)phenyl)acrylamide]: the negative-log IC50 (pIC50) in experiment [1] is 6.60; on BRD4-2 it was 7.11. With `C#CC(=O)Nc1ccc(Oc2c(C)cccc2C)c(-c2cn(C)c(=O)c3cc(C(=O)NCC)sc23)c1` [Compound 587, 7-(2-(2,6-dimethylphenoxy)-5-propiolamidophenyl)-N-ethyl-5-methyl-4-oxo-4,5-dihydrothieno[3,2-c]pyridine-2-carboxamide], the pIC50 in experiment [1] is 7.35; on BRD4-2, 7.96. For `C=CC(=O)Nc1ccc(Oc2c(C)cccc2C)c(-c2cn(C)c(=O)cc2OC(C)C)c1` [Compound 589, N-(4-(2,6-dimethylphenoxy)-3-(4-isopropoxy-1-methyl-6-oxo-1,6-dihydropyridin-3-yl)phenyl)acrylamide], the pIC50 in experiment [1] was 6.74; on BRD4-1, 5.14; on BRD4-2, 7.92. Turning to `C/C=C/C(=O)Nc1ccc(Oc2c(C)cccc2C)c(-c2cn(C)c(=O)c3cc(C(=O)NCC)sc23)c1` [Compound 611, (E)-7-(5-but-2-enamido-2-(2,6-dimethylphenoxy)phenyl)-N-ethyl-5-methyl-4-oxo-4,5-dihydrothieno[3,2-c]pyridine-2-carboxamide], the negative-log IC50 (pIC50) on BRD4-1 was 5.13; at BRD4-2 it was 8.70. Regarding `C=CC(=O)Nc1ccc(N(C)c2ccc(F)cc2F)c(-c2cn(C)c(=O)c3sc(C(=O)NCC)cc23)c1` [Compound 612, 4-(5-acrylamido-2-((2,4-difluorophenyl)(methyl)amino)phenyl)-N-ethyl-6-methyl-7-oxo-6,7-dihydrothieno[2,3-c]pyridine-2-carboxamide], the pIC50 on BRD4-2 is below 5.00. For the compound `C=CC(=O)Nc1ccc(Oc2ccc(F)cc2F)c(-n2cc(C)c(=O)c3ccccc32)c1` [Compound 613, N-(4-(2,4-difluorophenoxy)-3-(3-methyl-4-oxoquinolin-1(4H)-yl)phenyl)acrylamide], the negative logarithm of the IC50 (pIC50) in experiment [1] is 5.22; on BRD4-2 it was 7.57. With `CCS(=O)(=O)Nc1ccc(Oc2ccc(F)cc2F)c(-n2cc(C)c(=O)c3ccccc32)c1` [Compound 616, N-(4-(2,4-difluorophenoxy)-3-(3-methyl-4-oxoquinolin-1(4H)-yl)phenyl) ethanesulfonamide], the pIC50 in experiment [1] was 7.42; at BRD4-1 it was 7.96; on BRD4-2 it was 8.40. Take `C=CC(=O)n1cc(-c2cc(NS(=O)(=O)CC)ccc2Oc2ccc(F)cc2F)c2ccccc2c1=O` [Compound 662, N-(3-(2-acryloyl-1-oxo-1,2-dihydroisoquinolin-4-yl)-4-(2,4-difluorophenoxy)phenyl)ethanesulfonamide]: at BRD4-2, the pIC50 is below 5.00. As for `CCS(=O)(=O)Nc1ccc(Oc2ccc(F)cc2F)c(-c2cn(C)c(=O)c3[nH]ccc23)c1` [mivebresib, reference compound], the “c-Myc suppression activity after washoff” value in the experiment with c-Myc is listed as “rebound in c-Myc expression”.
